Patent US6506580B1, “Splice variants for human 5-HT4 serotonin receptor and their applications, in particular for screening” (Institut National de la Sante et de la Recherche Medicale …, priority 1997, dated 2003)

Assays:
Assay type in all cases: cell-based
[1] = test system: “blank”-transfected CHO cells; assay: cAMP formation in control CHO cells; conditions: 1 μM
Protocol: The entire coding region of the 5-HT4(c) and 5-HT4(d) cDNAs was subcloned into a mammalian expression vector pRC/CMV (Invitrogen, Carlsbad, Calif.). The CHO cells are stably transfected by electroporation (250 V, 960 μF) with the plasmid PRc/CMV, containing the clone h5-HT4(c) or h5-HT4(d), cleaved with the restriction enzyme Kpn1 (10 μg of plasmid for 10^7 cells). The cells are cultured in HAM-F12 medium supplemented with 10% of heat-inactivated foetal calf serum. […] Twelve days later, the clones are individualized and cultured in 12-well plates. Clone selection is carried out by studying the stimulation of the cAMP formed in the presence of 1 μM serotonin. For the radioligand binding assays or for the measurement of cAMP formation, the cells transfected with the receptor 5-HT4 cDNA constructs were compared with the “blank”-transfected cells, which were exposed to the unmodified pRC/CMV plasmid.
(§1) To measure intracellular cAMP accumulation, the stably transfected CHO cells were incubated in the HAM-F12 medium containing 5 mM theophylline, 10 mM HEPES and 10 μM pargyline, for 15 minutes at 37° C. in the presence of 5% CO2. […] The reaction was stopped by aspiration of the medium and addition of 500 μl of ice-cold ethanol. […] The cAMP was quantified in the supernatant using a radio-immunological assay (E.R.I.A. assay kit from Immunotech, Marseilles). […]

[2] = biological target: receptor 5-HT4(c) (Homo sapiens, UniProt Q13639); assay: cAMP formation in transiently transfected COS-7 cells; design: The entire coding region of the cDNAs of 5-HT4(a), 5-HT4(b), 5-HT4(c) and 5-T4(d) was subcloned; expressed in transfected cells; host or cells: COS-7 cells, transient, pRC/CMV vector; cDNA amplified from human brain and ileum RNA; conditions: for increase in the basal cAMP level: 1 μM
Chain of receptor 5-HT4(c) (Q13639 1-380 isoform Q13639-4): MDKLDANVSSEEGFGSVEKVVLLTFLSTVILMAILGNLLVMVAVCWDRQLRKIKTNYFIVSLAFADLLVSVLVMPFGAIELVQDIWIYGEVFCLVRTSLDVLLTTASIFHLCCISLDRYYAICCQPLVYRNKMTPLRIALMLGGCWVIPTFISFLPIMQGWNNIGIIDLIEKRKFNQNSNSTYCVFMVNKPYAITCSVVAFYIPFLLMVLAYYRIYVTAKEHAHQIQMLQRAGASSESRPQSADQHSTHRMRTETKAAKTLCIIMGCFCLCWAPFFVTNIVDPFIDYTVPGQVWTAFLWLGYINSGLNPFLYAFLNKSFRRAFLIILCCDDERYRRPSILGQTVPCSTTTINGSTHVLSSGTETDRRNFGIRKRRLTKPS
Protocol: (§2) The entire coding region of the cDNAs of 5-HT4(a), 5-HT4(b), 5-HT4(c) and 5-T4(d) was subcloned into a mammalian expression vector pRC/CMV (Invitrogen, Carlsbad, Calif.). The transfections were carried out using polyethyleneimine (PEI) as described in Boussif et al. (1995). The cells were transfected using a mixture of DNA and of PEI in a ratio of 20 μmol of PEI/mg of DNA in 0.9% NaCl. For the radioligand binding assays, the COS-7 cells were seeded into culture flasks of 1.5×10^4 mm^2 one day before the transfection, at a density of 1×10^7 cells/flask, incubated for six hours with plasmid DNA (150 μg/flask) and collected 48 hours after transfection. For the measurement of cAMP formation, the COS-7 cells were seeded onto twelve-well plates one day before transfection, at a density of 5×10^5 cells/well, incubated for six hours with plasmid DNA (4 to 8 μg/well according to the experiments) and assayed 24 hours after the transfection. The cells transfected with the receptor 5-HT4 cDNA constructs were compared with the “blank”-transfected cells, which were exposed to the unmodified pRC/CMV plasmid.
(§3) To measure intracellular cAMP accumulation, the transiently transfected COS-7 cells were incubated, 24 hours after transfection, in Dulbecco's modified Eagle medium (DMEM) containing 5 mM theophylline, 10 mM HEPES and 10 μM pargyline for 15 minutes at 37° C., in the presence of 5% CO2. […] The reaction was stopped by aspiration of the medium and addition of 500 μl of ice-cold ethanol. After one hour at room temperature, the cells were scraped, and everything was collected and freeze-dried. The pellet was resuspended in 350 μl of PBS and centrifuged for 5 min at 300 g. The cAMP was quantified in the supernatant using a radioimmunological assay (E.R.I.A. assay kit from Pasteur Diagnostics 79830). Student's t tests were carried out using the program Quick TEst.
ML10375 is capable of reducing the cAMP levels in the cells expressing the 5-HT4(c) and 5-HT4(d) isoforms in the absence of any stimulation of the receptor by 5-HT4 agonists. To test the hypothesis that ML10375 may constitute a reverse agonist for the human receptor 5-HT4, the 5-HT4(c) isoform was overexpressed in COS-7 cells in order to increase the frequency of the spontaneously active state of the receptor. The COS-7 cells were transfected with 4 to 8 μg of plasmid DNA per well in order to obtain an increase in the expression levels of the receptor 5-HT4(c). […] (FIG. 6B).

[3] = test system: “blank”-transfected COS-7 cells; assay: cAMP formation in control COS-7 cells; conditions: 1 μM
Protocol: as §2, §3

[4] = biological target: receptor 5-HT4(d) (Homo sapiens, UniProt Q13639); assay: cAMP formation in transiently transfected COS-7 cells; design: The entire coding region of the cDNAs of 5-HT4(a), 5-HT4(b), 5-HT4(c) and 5-T4(d) was subcloned; expressed in transfected cells; host or cells: COS-7 cells, transient, pRC/CMV vector; cDNA amplified from human brain and ileum RNA; conditions: COS-7, 1 μM agonist, 15 minutes
Chain of receptor 5-HT4(d) (Q13639 1-360 isoform Q13639-3): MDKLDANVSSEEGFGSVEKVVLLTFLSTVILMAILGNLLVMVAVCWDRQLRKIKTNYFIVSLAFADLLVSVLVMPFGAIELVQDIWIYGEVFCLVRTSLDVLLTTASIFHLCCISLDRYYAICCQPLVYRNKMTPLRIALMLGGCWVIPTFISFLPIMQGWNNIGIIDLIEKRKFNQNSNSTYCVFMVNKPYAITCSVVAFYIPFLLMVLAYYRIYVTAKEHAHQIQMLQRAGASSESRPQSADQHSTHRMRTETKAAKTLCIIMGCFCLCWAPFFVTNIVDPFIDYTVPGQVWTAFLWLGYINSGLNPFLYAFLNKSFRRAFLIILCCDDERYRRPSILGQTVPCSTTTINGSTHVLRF
Protocol: The entire coding region of the cDNAs of 5-HT4(a), 5-HT4(b), 5-HT4(c) and 5-T4(d) was subcloned into a mammalian expression vector pRC/CMV (Invitrogen, Carlsbad, Calif.). The transfections were carried out using polyethyleneimine (PEI) as described in Boussif et al. (1995). The cells were transfected using a mixture of DNA and of PEI in a ratio of 20 μmol of PEI/mg of DNA in 0.9% NaCl. For the radioligand binding assays, the COS-7 cells were seeded into culture flasks of 1.5×10^4 mm^2 one day before the transfection, at a density of 1×10^7 cells/flask, incubated for six hours with plasmid DNA (150 μg/flask) and collected 48 hours after transfection. For the measurement of cAMP formation, the COS-7 cells were seeded onto twelve-well plates one day before transfection, at a density of 5×10^5 cells/well, incubated for six hours with plasmid DNA (4 to 8 μg/well according to the experiments) and assayed 24 hours after the transfection. […]
To measure intracellular cAMP accumulation, the transiently transfected COS-7 cells were incubated, 24 hours after transfection, in Dulbecco's modified Eagle medium (DMEM) containing 5 mM theophylline, 10 mM HEPES and 10 μM pargyline for 15 minutes at 37° C., in the presence of 5% CO2. […] The cAMP was quantified in the supernatant using a radioimmunological assay (E.R.I.A. assay kit from Pasteur Diagnostics 79830). […]

[5] = biological target: T1, h5-HT4(c) (Homo sapiens, UniProt Q13639); assay: cAMP formation in stably transfected CHO cells; conditions: 1 μM, 15 minutes
T1 construct: The entire coding region of the 5-HT4(c) and 5-HT4(d) cDNAs was subcloned; expressed in transfected cells
T1 sequence (Q13639 1-380 isoform Q13639-4): as the sequence (Q13639 1-380 isoform Q13639-4) above
Protocol: (§4) The entire coding region of the 5-HT4(c) and 5-HT4(d) cDNAs was subcloned into a mammalian expression vector pRC/CMV (Invitrogen, Carlsbad, Calif.). The CHO cells are stably transfected by electroporation (250 V, 960 μF) with the plasmid PRc/CMV, containing the clone h5-HT4(c) or h5-HT4(d), cleaved with the restriction enzyme Kpn1 (10 μg of plasmid for 10^7 cells). The cells are cultured in HAM-F12 medium supplemented with 10% of heat-inactivated foetal calf serum. […] Twelve days later, the clones are individualized and cultured in 12-well plates. […] For the radioligand binding assays or for the measurement of cAMP formation, the cells transfected with the receptor 5-HT4 cDNA constructs were compared with the “blank”-transfected cells, which were exposed to the unmodified pRC/CMV plasmid.
as §1, with “ethanol. After one hour at room temperature, the cells were scraped, and everything was collected and freeze-dried.” for “ethanol.”

[6] = biological target: T2, h5-HT4(d) (Homo sapiens, UniProt Q13639); assay: cAMP formation in stably transfected CHO cells; conditions: 1 μM, 15 minutes
T2 construct: The entire coding region of the 5-HT4(c) and 5-HT4(d) cDNAs was subcloned; expressed in transfected cells
T2 sequence (Q13639 1-360 isoform Q13639-3): as the sequence (Q13639 1-360 isoform Q13639-3) above
Protocol: as §4
as §1, with “ethanol. After one hour at room temperature, the cells were scraped, and everything was collected and freeze-dried.” for “ethanol.”

[7] = biological target: T3, receptor 5-HT4(b) (Homo sapiens, UniProt Q13639); assay: cAMP formation in transiently transfected COS-7 cells; conditions: COS-7, 1 μM agonist, 15 minutes
T3 construct: The entire coding region of the cDNAs of 5-HT4(a), 5-HT4(b), 5-HT4(c) and 5-T4(d) was subcloned; expressed in transfected cells; host or cells: COS-7 cells, transient, pRC/CMV vector; cDNA amplified from human brain and ileum RNA
T3 sequence (Q13639 whole entry): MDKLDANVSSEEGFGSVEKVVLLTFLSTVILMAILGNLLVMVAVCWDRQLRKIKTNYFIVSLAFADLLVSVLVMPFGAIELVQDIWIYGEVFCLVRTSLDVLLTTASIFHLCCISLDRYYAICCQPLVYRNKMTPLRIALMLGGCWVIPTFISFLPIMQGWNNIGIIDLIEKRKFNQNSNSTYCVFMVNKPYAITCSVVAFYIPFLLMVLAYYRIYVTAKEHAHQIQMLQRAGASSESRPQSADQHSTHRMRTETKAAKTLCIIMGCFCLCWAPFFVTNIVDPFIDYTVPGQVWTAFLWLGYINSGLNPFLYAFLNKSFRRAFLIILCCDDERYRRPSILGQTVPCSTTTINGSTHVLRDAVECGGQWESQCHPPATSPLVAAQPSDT
Protocol: as §2, §3

[8] = biological target: T4, receptor 5-HT4(a) (Homo sapiens, UniProt Q13639); assay: as above; conditions: COS-7, 1 μM agonist, 15 minutes
T4 construct: The entire coding region of the cDNAs of 5-HT4(a), 5-HT4(b), 5-HT4(c) and 5-T4(d) was subcloned; expressed in transfected cells; host or cells: COS-7 cells, transient, pRC/CMV vector
T4 sequence (Q13639 1-387 isoform Q13639-2): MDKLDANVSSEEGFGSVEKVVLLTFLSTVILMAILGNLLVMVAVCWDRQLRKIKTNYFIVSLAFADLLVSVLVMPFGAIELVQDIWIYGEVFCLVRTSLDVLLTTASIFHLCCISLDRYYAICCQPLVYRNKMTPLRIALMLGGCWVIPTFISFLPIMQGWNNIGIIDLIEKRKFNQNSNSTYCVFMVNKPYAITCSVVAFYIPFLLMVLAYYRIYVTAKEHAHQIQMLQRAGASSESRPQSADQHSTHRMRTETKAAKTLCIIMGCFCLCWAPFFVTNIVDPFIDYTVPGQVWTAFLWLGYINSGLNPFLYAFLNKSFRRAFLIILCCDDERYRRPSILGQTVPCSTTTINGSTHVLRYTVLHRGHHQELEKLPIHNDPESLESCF
Protocol: as §2, §3

increase in cAMP concentration ([2]; COS-7, 1 μM agonist, 15 minutes): 64%
increase in the basal cAMP level ([2]; COS-7 transfected with 4 μg of plasmid DNA): 64%
increase in the basal cAMP level ([2]; COS-7 transfected with 8 μg of plasmid DNA): did not significantly increase
increase in cAMP concentration [4]: 77%
increase in cAMP concentration [5]: 91%
increase in cAMP concentration [6]: 118%
increase in cAMP concentration [7]: 85%
increase in cAMP concentration [8]: 82%
SMILES: NCCc1c[nH]c2ccc(O)cc12 [5-HT, 5-hydroxytryptamine]
effect on cAMP [1]: no effect
effect on basal adenylate cyclase activity / basal cAMP levels [3]: no effect
